Read-outs that look alike come from different tables or passages of the source.
Legend:
[1] = test system: pAKT^S473 (PI3K signalling) in T cell lymphoblasts; assay: pAKT^S473 expression in T cell lymphoblast cultures by flow cytometry, with and without OKT3 activation; format: cell-based, human; conditions: for IC50: Homo sapiens, T-cell
Method: (§1) The activity of N—{(R)-1-[8-Chloro-2-(1-oxypyridin-3-yl)quinolin-3-yl]-2,2,2-trifluoroethyl}pyrido[3,2-d]pyrimidin-4-ylamine [hereinafter referred to as “Compound (A)”] on PI3K signalling was assessed by measuring levels of either phosphorylated serine 473 of AKT (pAKT^S473) or phosphorylated serine 235/236 of ribosomal protein S6 (pS6^S235/236) using flow cytometry. The results obtained are depicted in the accompanying drawings, in which:
Analysis of phosphorylated AKT at Ser 473 (pAKT^S473) levels in T cell lymphoblast cultures by flow cytometry was performed with peripheral blood lymphocytes from healthy donors, and from APDS1 and APDS2 patients, with and without T cell receptor activation.
Generation of T cell lymphoblasts was performed in accordance with the method described by M-C. Deau et al. in J. Clin. Invest., 2014, 124, 3923-3928. In brief, peripheral blood mononuclear cells were isolated by Ficoll-Paque density gradient centrifugation (Pharmacia Biotech; catalogue no. #171-44003) and washed twice with RPMI 1640 GlutaMax medium (Invitrogen). T cell lymphoblasts were obtained by stimulating 1×10^6 cells per mL in RPMI 1640 GlutaMax medium supplemented with 10% human AB serum, penicillin/streptomycin (Invitrogen), PMA (phorbol 12-myristate 13-acetate; 20 ng/mL; Sigma-Aldrich) and ionomycin (1 μmol/L). After 2 to 3 days of activation, viable cells were separated by Ficoll-Paque density-gradient centrifugation and washed twice with RPMI 1640 GlutaMax medium, then cultured in RPMI 1640 GlutaMax medium supplemented with 10% human AB serum and 100 U/mL pro-IL2.
Analysis of phosphorylated AKT at Ser 473 levels in T cell lymphoblast cultures was performed once sufficient cells were available for the analysis (e.g. 6-12 days after starting the culture with pro-IL2).
The activity of Compound (A) was assessed in (i) the absence or (ii) the presence of T cell activation by receptor cross-linking with OKT3:
(i) Incubation of APDS1 and APDS2 patient cells for 30 minutes with Compound (A) at different concentrations (0, 1, 3, 10, 30, 100 and 200 nM). A positive control for pAKT staining (simulated cells with OKT3) was included (8×10^6 cells/patient).
(ii) Incubation of APDS1 and APDS2 patient cells for 30 minutes with Compound (A) at different concentrations (0, 1, 3, 10, 30, 100 and 200 nM) stimulated with anti-CD3 (OKT3; T cell receptor activation).
Corresponding assays were performed with T cell lymphoblasts derived from healthy donors (CTRL).

[2] = test system: pS6^S235/236 (PI3K signalling) in T cell subsets in whole blood; assay: Ex vivo pS6^S235/236 expression in T cell subsets in whole blood by flow cytometry; format: cell-based, human; conditions: for IC50: Homo sapiens, T-cell
Method: as §1
The levels of pS6^S235/236 in different T cell (CD3+CD4+; CD3+CD8+) subsets in total blood from healthy donors, and from APDS1 and APDS2 patients, were analyzed by flow cytometry. The blood was incubated ex vivo for 45 minutes at 37° C. with different doses of Compound (A) (0, 10, 30, 100, 300, 1000 and 2000 nM).
The phosphorylation of ribosomal protein S6 at Ser 235/236 (pS6^S235/236) in cells from healthy donors, and from APDS1 and APDS2 patients, was analyzed ex vivo in the presence and absence of Compound (A) (10-2000 nM) in different T cell (CD3+CD4+; CD3+CD8+) subsets. As noted above, total blood was incubated ex vivo for 45 minutes at 37° C.
Data were generated with blood from two (2) healthy donors, three (3) APDS1 patients and one (1) APDS2 patient.

[3] = APD001 Phase 1b open-label 12-week clinical study in APDS1 and APDS2 patients; format: in vivo, human; conditions: 12 weeks of treatment
From the text: APD001 is an ongoing Phase 1b, multicentre, open-label, 12-week study to assess the efficacy, safety and tolerability of Compound (A) in male and female adolescents (aged from 12 to 18 years) and adults with APDS1 and APDS2.

[O-][n+]1cccc(-c2nc3c(Cl)cccc3cc2[C@@H](Nc2ncnc3cccnc23)C(F)(F)F)c1 [Compound (A), N—{(R)-1-[8-Chloro-2-(1-oxypyridin-3-yl)quinolin-3-yl]-2,2,2-trifluoroethyl}pyrido[3,2-d]pyrimidin-4-ylamine]
IC50 ([1]; APDS1 and APDS2 patient-derived T cell lymphoblasts, absence of T cell activation by OKT3, read-out: IC50 range, pAKT expression): 3 to 20 nM
IC50 ([1]; APDS1 and APDS2 patient-derived T cell lymphoblasts, presence of T cell activation by OKT3, read-out: IC50 range, pAKT expression): 7 to 50 nM
IC50 ([1]; T lymphoblasts from 3 APDS1 patients, OKT3 +, read-out: Geomean IC50, inhibition of pAKT^S473 expression): 21 nM
IC50 ([1]; T lymphoblasts from 3 APDS1 patients, OKT3 +, read-out: Range of IC50, inhibition of pAKT^S473 expression): 7 to 50 nM
IC50 ([1]; T lymphoblasts from 3 APDS1 patients, OKT3 −, read-out: Geomean IC50, inhibition of pAKT^S473 expression): 8 nM
IC50 ([1]; T lymphoblasts from 3 APDS1 patients, OKT3 −, read-out: Range of IC50, inhibition of pAKT^S473 expression): 3 to 12 nM
IC50 ([1]; T lymphoblasts from 3 APDS2 patients, OKT3 +, read-out: Geomean IC50, inhibition of pAKT^S473 expression): 28 nM
IC50 ([1]; T lymphoblasts from 3 APDS2 patients, OKT3 +, read-out: Range of IC50, inhibition of pAKT^S473 expression): 21 to 33 nM
IC50 ([1]; T lymphoblasts from 3 APDS2 patients, OKT3 −, read-out: Geomean IC50, inhibition of pAKT^S473 expression): 13 nM
IC50 ([1]; T lymphoblasts from 3 APDS2 patients, OKT3 −, read-out: Range of IC50, inhibition of pAKT^S473 expression): 8 to 20 nM
IC50 ([1]; T lymphoblasts from 3 healthy donors, OKT3 +, read-out: Geomean IC50, inhibition of pAKT^S473 expression): 16 nM
IC50 ([1]; T lymphoblasts from 3 healthy donors, OKT3 +, read-out: Range of IC50, inhibition of pAKT^S473 expression): 9 to 50 nM
Inhibition of pAKT^S473 expression (in words) ([1]; basal and activated T lymphoblast cultures): potently inhibited
Inhibition of pS6^S235/236 expression (in words) ([2]; CD3+ and CD8+ cells, one APDS2 patient): showed potent inhibition
IC50 ([2]; CD3+ and CD8+ cells, one APDS2 patient, based on concentration-response curves, read-out: IC50, inhibition of pS6^S235/236 expression): ≤ 100 nM
IC50 ([2]; CD3+ cells, 3 APDS1 patients, read-out: Geomean IC50 (adjusted for free concentration), pS6^S235/236 expression): 51 nM
IC50 ([2]; CD3+ cells, 3 APDS1 patients, read-out: Range of IC50 (adjusted for free concentration), pS6^S235/236 expression): 36 to 67 nM
IC50 ([2]; CD4+ cells, 3 APDS1 patients, read-out: Geomean IC50 (adjusted for free concentration), pS6^S235/236 expression): 41 nM
IC50 ([2]; CD4+ cells, 3 APDS1 patients, read-out: Range of IC50 (adjusted for free concentration), pS6^S235/236 expression): 29 to 56 nM
IC50 ([2]; CD8+ cells, 3 APDS1 patients, read-out: Geomean IC50 (adjusted for free concentration), pS6^S235/236 expression): 56 nM
IC50 ([2]; CD8+ cells, 3 APDS1 patients, read-out: Range of IC50 (adjusted for free concentration), pS6^S235/236 expression): 40 to 72 nM
Inhibition of pS6^S235/236 signal (in words) ([2]; three T cell subsets, three APDS1 patients): showed inhibition
Tolerability ([3]; APDS patients): well tolerated
Clinical outcome ([3]; three APDS patients): some clinical and immunological improvements together with disease activity improvement
